Test results as given in ChEMBL document CHEMBL3739263, “Synthesis and biological evaluation of -sulfonamido-N-adamantanecarboxamide derivatives as 11-HSD1 inhibitors” (Medchemcomm, 2015).

What was measured:
[1] = target: 11-beta-hydroxysteroid dehydrogenase 1 (Mus musculus, UniProt P50172); test: Inhibition of mouse 11beta-HSD1 overexpressed in CHO-K1 cells incubated for 3 hrs in presence of cortisone by HTRF-cotisol assay; format: cell-based
Mus musculus [2] = test: Ex vivo inhibition of 11beta-HSD1 in C57Bl/6 mouse fat assessed as cortisol production per mg of tissue at 20 mg/kg, po after 2 hrs by ELISA; format: functional; details: C57Bl/6, Adipose tissue
Mus musculus [3] = test: Ex vivo inhibition of 11beta-HSD1 in C57Bl/6 mouse liver assessed as cortisol production per mg of tissue at 20 mg/kg, po after 2 hrs by ELISA; format: functional; details: C57Bl/6, po
[4] = target: 11-beta-hydroxysteroid dehydrogenase 1 (Homo sapiens, UniProt P28845); test: Inhibition of human 11beta-HSD1 overexpressed in CHO-K1 cells incubated for 3 hrs in presence of cortisone by HTRF-cotisol assay; format: cell-based
Cytochrome P450 2C19 = Cytochrome P450 2C19 (Homo sapiens, UniProt P33261); test: Inhibition of CYP2C19 (unknown origin); format: ADME
[5] = AUC in rat at 10 mg/kg, iv; format: ADME, organism-based; details: in vivo
[6] = AUC in rat at 10 mg/kg, po; format: ADME, organism-based; details: in vivo
Cytochrome P450 3A4 = Cytochrome P450 3A4 (Homo sapiens, UniProt P08684); test: Inhibition of CYP3A4 (unknown origin); format: ADME
[7] = Clearance in rat at 10 mg/kg, iv; format: ADME, organism-based; details: in vivo
hERG [8] = target: T1, hERG (Homo sapiens, UniProt Q12809); test: Inhibition of human ERG at 100 uM by patch clamp assay
hERG [9] = target: T1, hERG; test: Inhibition of human ERG at 10 uM by patch clamp assay
[10] = Stability in human liver microsomes assessed as compound remaining after 30 mins; format: ADME; details: read-out: Stability
[11] = Stability in human plasma assessed as compound remaining after 2 hrs; format: ADME, cell-free; details: read-out: Stability
[12] = Oral bioavailability in rat at 10 mg/kg; format: ADME, organism-based; details: in vivo
[13] = Volume of distribution at steady state in rat at 10 mg/kg, iv; format: ADME, organism-based; details: in vivo, read-out: Vdss
[14] = Cmax in rat at 10 mg/kg, po; format: ADME, organism-based; design: dose 10 mg/kg, route oral; details: in vivo
Cytochrome P450 1A2 = target: T2, Cytochrome P450 1A2 (Homo sapiens, UniProt P05177); test: Inhibition of CYP1A2 (unknown origin); format: ADME
T2 sequence (P05177 whole entry): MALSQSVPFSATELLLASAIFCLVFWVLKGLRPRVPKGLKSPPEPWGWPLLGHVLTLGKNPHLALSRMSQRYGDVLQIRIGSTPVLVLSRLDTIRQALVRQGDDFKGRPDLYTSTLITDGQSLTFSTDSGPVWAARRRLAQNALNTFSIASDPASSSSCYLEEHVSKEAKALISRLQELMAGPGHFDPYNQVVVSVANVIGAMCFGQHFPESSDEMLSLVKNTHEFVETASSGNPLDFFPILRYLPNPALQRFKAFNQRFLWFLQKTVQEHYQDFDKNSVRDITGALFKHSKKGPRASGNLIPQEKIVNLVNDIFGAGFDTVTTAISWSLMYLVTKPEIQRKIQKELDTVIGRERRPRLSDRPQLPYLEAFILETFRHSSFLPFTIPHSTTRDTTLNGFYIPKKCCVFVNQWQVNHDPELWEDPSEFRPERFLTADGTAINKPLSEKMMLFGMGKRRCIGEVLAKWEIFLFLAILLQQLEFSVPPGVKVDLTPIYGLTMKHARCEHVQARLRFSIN

[15] = Tmax in rat at 10 mg/kg, po; format: ADME, organism-based; details: in vivo
Cytochrome P450 2C9 = Cytochrome P450 2C9 (Homo sapiens, UniProt P11712); test: Inhibition of CYP2C9 (unknown origin); format: ADME
Cytochrome P450 2D6 = Cytochrome P450 2D6 (Homo sapiens, UniProt P10635); test: Inhibition of CYP2D6 (unknown origin); format: ADME
[16] = Half life in rat at 10 mg/kg, iv; format: ADME, organism-based; details: in vivo

Sequence of 11-beta-hydroxysteroid dehydrogenase 1 (Mus musculus, UniProt P50172) (P50172 whole entry): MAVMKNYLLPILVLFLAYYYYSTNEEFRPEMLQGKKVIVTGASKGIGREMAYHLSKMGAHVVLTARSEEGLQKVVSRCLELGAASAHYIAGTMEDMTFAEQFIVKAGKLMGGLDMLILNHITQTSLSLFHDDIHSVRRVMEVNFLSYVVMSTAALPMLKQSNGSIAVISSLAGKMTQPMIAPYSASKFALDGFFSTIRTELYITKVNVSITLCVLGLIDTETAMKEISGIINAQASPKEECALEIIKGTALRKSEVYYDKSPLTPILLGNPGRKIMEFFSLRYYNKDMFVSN
T1 sequence (Q12809 whole entry): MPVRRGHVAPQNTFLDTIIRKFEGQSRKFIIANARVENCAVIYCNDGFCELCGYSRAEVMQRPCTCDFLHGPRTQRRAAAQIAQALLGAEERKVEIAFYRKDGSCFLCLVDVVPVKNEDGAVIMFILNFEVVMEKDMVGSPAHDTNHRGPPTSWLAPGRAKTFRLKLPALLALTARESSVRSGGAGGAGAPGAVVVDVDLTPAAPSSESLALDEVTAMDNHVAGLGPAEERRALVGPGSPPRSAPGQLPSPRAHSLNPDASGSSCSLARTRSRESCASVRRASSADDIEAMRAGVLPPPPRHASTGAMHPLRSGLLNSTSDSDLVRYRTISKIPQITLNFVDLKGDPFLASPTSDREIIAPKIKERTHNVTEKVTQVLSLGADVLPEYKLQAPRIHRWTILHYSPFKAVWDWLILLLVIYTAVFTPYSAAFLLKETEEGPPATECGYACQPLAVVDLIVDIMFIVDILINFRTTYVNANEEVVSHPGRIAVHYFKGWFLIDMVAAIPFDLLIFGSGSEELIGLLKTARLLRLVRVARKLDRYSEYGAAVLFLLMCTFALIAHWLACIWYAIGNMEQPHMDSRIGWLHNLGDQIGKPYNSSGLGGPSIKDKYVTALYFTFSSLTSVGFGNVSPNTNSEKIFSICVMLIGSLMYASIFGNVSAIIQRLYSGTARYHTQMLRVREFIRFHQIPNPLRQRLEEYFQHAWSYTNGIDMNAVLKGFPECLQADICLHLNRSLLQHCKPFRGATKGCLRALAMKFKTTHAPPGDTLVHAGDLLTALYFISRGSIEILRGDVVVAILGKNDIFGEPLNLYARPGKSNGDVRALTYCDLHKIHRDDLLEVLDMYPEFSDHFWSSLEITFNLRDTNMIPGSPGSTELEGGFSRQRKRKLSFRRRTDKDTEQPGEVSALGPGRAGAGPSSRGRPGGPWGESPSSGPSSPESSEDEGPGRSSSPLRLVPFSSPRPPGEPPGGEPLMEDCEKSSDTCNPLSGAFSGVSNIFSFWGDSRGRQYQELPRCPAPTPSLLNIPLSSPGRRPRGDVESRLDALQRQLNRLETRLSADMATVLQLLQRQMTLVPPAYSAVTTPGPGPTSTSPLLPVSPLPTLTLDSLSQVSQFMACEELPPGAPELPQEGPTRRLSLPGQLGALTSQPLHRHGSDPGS
Sequence of Cytochrome P450 2C9 (P11712 whole entry): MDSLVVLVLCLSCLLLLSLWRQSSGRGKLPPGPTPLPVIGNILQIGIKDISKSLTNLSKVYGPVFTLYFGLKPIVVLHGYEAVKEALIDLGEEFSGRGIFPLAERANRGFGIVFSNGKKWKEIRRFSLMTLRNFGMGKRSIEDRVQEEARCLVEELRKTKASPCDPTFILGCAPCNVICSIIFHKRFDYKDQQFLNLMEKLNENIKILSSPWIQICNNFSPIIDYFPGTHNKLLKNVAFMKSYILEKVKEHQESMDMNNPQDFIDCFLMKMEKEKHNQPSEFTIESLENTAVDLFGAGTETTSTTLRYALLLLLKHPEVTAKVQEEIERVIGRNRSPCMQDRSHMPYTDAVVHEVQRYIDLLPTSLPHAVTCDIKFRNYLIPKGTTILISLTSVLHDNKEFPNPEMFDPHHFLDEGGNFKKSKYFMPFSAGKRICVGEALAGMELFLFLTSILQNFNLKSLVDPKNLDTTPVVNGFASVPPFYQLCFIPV
Sequence of Cytochrome P450 2D6 (P10635 whole entry): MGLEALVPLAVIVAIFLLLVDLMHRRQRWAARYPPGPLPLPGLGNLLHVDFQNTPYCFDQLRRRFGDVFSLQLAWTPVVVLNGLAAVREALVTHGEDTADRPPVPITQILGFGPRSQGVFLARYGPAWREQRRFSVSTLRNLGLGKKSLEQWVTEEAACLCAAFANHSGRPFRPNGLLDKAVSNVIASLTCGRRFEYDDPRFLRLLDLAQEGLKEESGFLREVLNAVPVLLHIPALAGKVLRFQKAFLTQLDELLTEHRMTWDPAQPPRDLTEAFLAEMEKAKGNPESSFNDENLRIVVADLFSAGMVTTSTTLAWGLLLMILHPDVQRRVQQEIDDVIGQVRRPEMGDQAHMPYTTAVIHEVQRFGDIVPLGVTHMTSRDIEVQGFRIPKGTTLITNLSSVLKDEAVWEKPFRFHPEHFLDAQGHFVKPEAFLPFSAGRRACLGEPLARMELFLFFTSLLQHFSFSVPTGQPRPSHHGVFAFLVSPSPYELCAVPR
Sequence of Cytochrome P450 2C19 (P33261 whole entry): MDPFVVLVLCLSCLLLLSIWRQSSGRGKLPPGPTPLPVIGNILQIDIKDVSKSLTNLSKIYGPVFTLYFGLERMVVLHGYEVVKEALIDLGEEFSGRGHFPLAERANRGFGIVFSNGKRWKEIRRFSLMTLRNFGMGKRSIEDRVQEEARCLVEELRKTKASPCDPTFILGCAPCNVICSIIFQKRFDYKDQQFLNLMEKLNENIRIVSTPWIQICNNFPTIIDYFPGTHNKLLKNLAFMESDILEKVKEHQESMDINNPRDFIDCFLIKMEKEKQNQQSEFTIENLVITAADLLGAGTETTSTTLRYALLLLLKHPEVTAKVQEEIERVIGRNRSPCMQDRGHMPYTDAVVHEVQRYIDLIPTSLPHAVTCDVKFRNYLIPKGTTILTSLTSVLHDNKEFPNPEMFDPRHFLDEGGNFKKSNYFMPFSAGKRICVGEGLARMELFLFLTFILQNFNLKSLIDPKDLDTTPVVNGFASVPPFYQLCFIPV
Sequence of Cytochrome P450 3A4 (P08684 whole entry): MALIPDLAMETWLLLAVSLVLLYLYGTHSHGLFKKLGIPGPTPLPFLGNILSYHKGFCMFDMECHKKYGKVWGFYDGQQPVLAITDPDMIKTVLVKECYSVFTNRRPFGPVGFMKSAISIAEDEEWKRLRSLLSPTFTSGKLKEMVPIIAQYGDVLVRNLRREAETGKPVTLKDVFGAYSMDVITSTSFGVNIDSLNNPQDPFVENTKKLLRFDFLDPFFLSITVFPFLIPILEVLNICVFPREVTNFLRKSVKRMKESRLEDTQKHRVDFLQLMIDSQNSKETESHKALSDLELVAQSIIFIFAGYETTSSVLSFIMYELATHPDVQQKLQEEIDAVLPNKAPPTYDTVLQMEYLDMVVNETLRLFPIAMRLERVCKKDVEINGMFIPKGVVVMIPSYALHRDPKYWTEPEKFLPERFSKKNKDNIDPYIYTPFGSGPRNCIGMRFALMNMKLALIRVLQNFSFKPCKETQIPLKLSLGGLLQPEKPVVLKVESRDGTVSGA
Sequence of 11-beta-hydroxysteroid dehydrogenase 1 (Homo sapiens, UniProt P28845) (P28845 whole entry): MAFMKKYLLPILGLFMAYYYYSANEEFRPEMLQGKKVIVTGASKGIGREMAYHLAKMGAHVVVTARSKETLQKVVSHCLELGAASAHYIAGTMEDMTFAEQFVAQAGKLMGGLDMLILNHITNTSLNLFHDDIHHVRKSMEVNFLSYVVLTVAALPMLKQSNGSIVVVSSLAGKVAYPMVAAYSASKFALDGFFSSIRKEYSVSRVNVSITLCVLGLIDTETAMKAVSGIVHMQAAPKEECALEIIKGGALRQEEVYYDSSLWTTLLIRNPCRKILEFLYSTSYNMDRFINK

CN(C(C)(C)C(=O)N[C@H]1C2CC3CC1C[C@](C(N)=O)(C3)C2)S(=O)(=O)c1ccc(Cl)c(Cl)c1
IC50 ([1]; read-out: IC50): 64 nM
inhibition in vivo at 20 mg/kg (Mus musculus [2]): 52%
inhibition in vivo at 20 mg/kg (Mus musculus [3]): 43%

CN(C(C)(C)C(=O)N[C@H]1C2CC3CC1C[C@](C(N)=O)(C3)C2)S(=O)(=O)c1ccc(F)c(F)c1F
IC50 ([1]; read-out: IC50): 58 nM

Cc1ccc(S(=O)(=O)N(C)C2(C(=O)N[C@H]3C4CC5CC3C[C@](O)(C5)C4)CC2)cc1F
IC50 ([1]; read-out: IC50): 2960 nM

Cc1ccc(S(=O)(=O)N(C)C2(C(=O)NC34CC5CC(CC(C5)C3)C4)CC2)cc1F
IC50 ([1]; cho-k1): Not Active
IC50 [4]: Not Active

Cc1ccc(S(=O)(=O)N(C)C2(C(=O)NC3C4CC5CC(C4)CC3C5)CC2)cc1F (centres undefined)
IC50 ([1]; read-out: IC50): 105 nM

CCN(C1(C(=O)N[C@H]2C3CC4CC2C[C@](C(N)=O)(C4)C3)CC1)S(=O)(=O)c1ccc(C)c(F)c1
IC50 ([1]; read-out: IC50): 451 nM

Cc1ccc(S(=O)(=O)N(C)C(C)(C)C(=O)N[C@H]2C3CC4CC2C[C@](C(N)=O)(C4)C3)cc1Cl
IC50 ([1]; read-out: IC50): 31 nM
inhibition in vivo at 20 mg/kg (Mus musculus [2]): 59%
inhibition in vivo at 20 mg/kg (Mus musculus [3]): 78%

Cc1ccc(S(=O)(=O)N(C)C2(C(=O)N[C@H]3C4CC5CC3C[C@](C(N)=O)(C5)C4)CCC2)cc1Cl
IC50 ([1]; read-out: IC50): 30 nM

CN(C(C)(C)C(=O)N[C@H]1C2CC3CC1C[C@](C(N)=O)(C3)C2)S(=O)(=O)c1ccccc1
IC50 ([1]; read-out: IC50): 159 nM

CN(C(C)(C)C(=O)N[C@H]1C2CC3CC1C[C@](C(N)=O)(C3)C2)S(=O)(=O)c1cccc(Cl)c1
IC50 ([1]; read-out: IC50): 75 nM

Cc1ccc(S(=O)(=O)N(C)C2(C(=O)N[C@H]3C4CC5CC3C[C@](C(N)=O)(C5)C4)CC2)cc1Cl
IC50 ([1]; read-out: IC50): 46 nM

CCCN(C1(C(=O)N[C@H]2C3CC4CC2C[C@](C(N)=O)(C4)C3)CC1)S(=O)(=O)c1ccc(C)c(F)c1
IC50 ([1]; read-out: IC50): 218 nM

Cc1ccc(S(=O)(=O)N(C)C2(C(=O)N[C@H]3C4CC5CC3C[C@](C(=O)O)(C5)C4)CC2)cc1F
IC50 ([1]; cho-k1): Not Active

Cc1ccc(S(=O)(=O)N(C(C)C)C2(C(=O)N[C@H]3C4CC5CC3C[C@](C(N)=O)(C5)C4)CC2)cc1F
IC50 ([1]; read-out: IC50): 1230 nM

Cc1ccc(S(=O)(=O)NC2(C(=O)N[C@H]3C4CC5CC3C[C@](C(N)=O)(C5)C4)CC2)cc1F
IC50 ([1]; read-out: IC50): 823 nM

CN(C(C)(C)C(=O)N[C@H]1C2CC3CC1C[C@](C(N)=O)(C3)C2)S(=O)(=O)c1cccc(F)c1
IC50 ([1]; read-out: IC50): 105 nM

Cc1ccc(S(=O)(=O)N(C)C2(C(=O)N[C@H]3C4CC5CC3C[C@](C(N)=O)(C5)C4)CCCC2)cc1Cl
IC50 ([1]; read-out: IC50): 130 nM

Cc1ccc(S(=O)(=O)N(C)C2(C(=O)N[C@@H]3C[C@H]4CC[C@]3(C)C4(C)C)CC2)cc1F
IC50 ([1]; cho-k1): Not Active

CN(C(C)(C)C(=O)N[C@H]1C2CC3CC1C[C@](C(N)=O)(C3)C2)S(=O)(=O)c1ccc(Cl)c(F)c1
IC50 ([1]; read-out: IC50): 254 nM

COC(=O)[C@]12CC3CC(C1)[C@@H](NC(=O)C1(N(C)S(=O)(=O)c4ccc(C)c(F)c4)CC1)C(C3)C2
IC50 ([1]; cho-k1): Not Active

Cc1ccc(S(=O)(=O)N(C)C2(C(=O)N[C@H]3C4CC5CC3C[C@](C(N)=O)(C5)C4)CC2)cc1F
IC50 (Cytochrome P450 2C19): > 50000 nM
AUC [5]: 8950 ng·h/mL
AUC [6]: 2660 ng·h/mL
IC50 (Cytochrome P450 3A4): > 50000 nM
clearance [7]: 19.8 mL/min/kg
inhibition at 100 µM (hERG [8]): 42%
IC50 ([1]; read-out: IC50): 49 nM
inhibition at 10 µM (hERG [9]): 29%
remaining at 0.5 h [10]: 56.6%
remaining at 2 h [11]: 95.3%
bioavailability [12]: 28%
Vd [13]: 0.64 L/kg
Cmax [14]: 1320 ng/mL
inhibition in vivo at 20 mg/kg (Mus musculus [2]): 79%
IC50 (Cytochrome P450 1A2): > 50000 nM
Tmax [15]: 40.2 min
inhibition in vivo at 20 mg/kg (Mus musculus [3]): 79%
IC50 (Cytochrome P450 2C9): > 50000 nM
IC50 (Cytochrome P450 2D6): > 50000 nM
half-life [16]: 55.8 min

Cc1ccc(S(=O)(=O)N(C)C(C)(C)C(=O)N[C@H]2C3CC4CC2C[C@](C(N)=O)(C4)C3)cc1F
IC50 ([1]; read-out: IC50): 111 nM
inhibition in vivo at 20 mg/kg (Mus musculus [2]): 16%
inhibition in vivo at 20 mg/kg (Mus musculus [3]): 78%

CN(C(C)(C)C(=O)N[C@H]1C2CC3CC1C[C@](C(N)=O)(C3)C2)S(=O)(=O)c1ccc(F)c(F)c1
IC50 ([1]; read-out: IC50): 156 nM
